What was measured:
FGFR1 = target: T1, FGFR1 (Homo sapiens, UniProt P11362); test: Z′-LYTE Detection Kinase Assay, in vitro enzymatic activity; type: biochemical; conditions: 0.6 nM FGFR1, 2 uM Tyr4 peptide, 10 uM ATP, 60 min 23° C.
T1 construct: purchased Invitrogen PV4105
Procedure: To measure enzyme activity by Z′-LYTE™ Detection Kinase Assay, and to evaluate the inhibitory effect of the compounds on FGFR1 using IC50 value of the compounds as an indicator. […]
Reaction Buffer: 50 mM Hepes (pH 7.5), 10 mM MgCl2, 1 mM EGTA, 0.01% Brij-35, 1 mM DTT, 2 mM MnCl2 0.6 nM FGFR1, 2 uM Tyr4 peptide and 10 uM ATP in reaction buffer (50 mM Hepes, pH 7.5, 10 mM MgCl2, 0.01% BRIJ-35, 1 mM EGTA, 4 mM MnCl2, 2 mM DTT). a. Diluting the compounds with DMSO to 10 mM, 3-fold dilution, 11 gradients, duplicate wells. b. Diluting the compound by 1:25 into middle plate at Bravo Automatic Liquid Station, then transferring 2.5 ul to the reaction plate to ensure the final DMSO concentration to be 1%. c. Transferring 5 ul of enzyme/substrate buffer into each well d. Using Multidrop Liquid Workstation to sequentially add ATP solution to each well e. Centrifuging at 1000 rpm for 1 minute f. Placing the reaction plate in an incubator at 23° C. to react for 60 min. a. Preparing a 1:128 mixture of Development Regent B and Development Buffer b. Adding 5 ul to each well and centrifuging at 1000 rpm for 1 minute c. Placing the reaction plate in a thermostat (23° C.) after centrifuging for 90 minutes, removing and reading on Envision (Perkin Elmer) Plate Reader
D. Analyzing Data: Analyzing Data Using XLFIT (IDBS) and Calculating IC50 Values for the Compounds.

[1] = system: FGFR1/2 Highly Expressed Patient-derived Liver Tumor Transplantation Model; test: Tumor growth inhibition (TGI) analysis; type: in vivo, mice; conditions: BID
Procedure: The evolutionary growth potential of tumors was evaluated by the relationship between tumor volume and time. The long axis (L) and short axis (W) of the subcutaneous tumor were measured twice a week by the caliper and the tumor volume (TV) was calculated by the formula ((L×W^2)/2). TGI was calculated from the difference between the median tumor volume in the solvent group mice and the median tumor volume in the drug group mice, expressed as a percentage counting for the median tumor volume in the solvent control group, calculated by the following formula: % TGI=((median tumor volume(control)−median tumor volume(dosing group))/median tumor volume(control group))×100
The original statistical analysis was done by repeating the analysis of variance, followed by Scheffe psot hoc experimental method for multiple comparisons, with solvent alone (0.5% methylcellulose+0.2% Tween in water) as negative control.

SNU-16 cell = test: CellTiter-Glo Luminescent Cell Viability Assay; type: cell-based; conditions: Homo sapiens, 72 h; SNU-16 cells, 3 days; read-out: SNU-16 IC50 (CellTiter-Glo Detection)
Procedure: To detect the change of intracellular ATP by CellTiter-Glo® Luminescent Cell Viability Assay, and to evaluate the inhibitory effect of the compounds on in vitro cell SNU-16 using IC50 value of the compounds as an indicator.
Cell line: SNU-16 cell strain d. Diluting SNU-16 with medium, adding the diluted cells to the 384 plate (Greiner. 781090) (50 μL/well, SNU-16 cell 750 cells/well) with multi-channel pipette. Placing the cell plate in a 37° C., 5% CO2 incubator overnight. […]
g. Diluting the compound with DMSO to 10 mM, 3-fold dilution, 11 gradients, duplicate wells. h. Transferring 2.4 ul of the compound to the middle plate added with 47.6 ul of cell culture media at Bravo Automatic Liquid Station. Then transferring 5 ul to the cell culture plate (55 ul) to ensure the final DMSO concentration to be 0.4%. […]
i. Placing the cell culture plate in 5% CO2 incubator at 37° C. to continue cultivating for 3 days. d. Balancing Cell Titer Glo Reagent to room temperature e. Taking 30 ul of Cell Titer Glo Reagent in a 1:2 ratio into each well and gently mixing for 2 minutes f. Placing the cell culture plate in an incubator (23° C.) for 10 minutes, taking out and centrifuging at 1000 rpm for 1 minute g. Reading on Envision (Perkin Elmer) Plate Reader.
H. Analyzing Data: Analyzing the Data Using XLFIT (IDBS) and Calculating IC50 Values for the Compounds.

[2] = female, Balb/c nude, mouse, in vivo, 2 mg/kg
Procedure: (§1) Experimental Procedure: A clear solution of the test compound in 20% DMSO/60% PEG400/20% water at 0.4 mg/ml was administered by intragastric administration to female Balb/c nude mice (fasted overnight, 7-9 weeks of age) with a dose of 2 mg/kg. About 30 μL of blood was collected from the jugular vein or caudal vein at 0.25, 0.5, 1.0, 2.0, 4.0, 8.0 and 24 h after administration in both groups of animals, placed in anticoagulation tube with EDTA-K2 and the plasma was centrifuged. Plasma concentrations were determined by LC-MS/MS and related pharmacokinetic parameters were calculated using the non-compartmental model linear logarithmic trapezoidal method using WinNonlin™ Version 6.3 (Pharsight, Mountain View, Calif.) pharmacokinetic software.

in vivo = conditions: female, Balb/c nude, mouse, po, 2 mg/kg
Procedure: as §1

T1 sequence (P11362 22-822): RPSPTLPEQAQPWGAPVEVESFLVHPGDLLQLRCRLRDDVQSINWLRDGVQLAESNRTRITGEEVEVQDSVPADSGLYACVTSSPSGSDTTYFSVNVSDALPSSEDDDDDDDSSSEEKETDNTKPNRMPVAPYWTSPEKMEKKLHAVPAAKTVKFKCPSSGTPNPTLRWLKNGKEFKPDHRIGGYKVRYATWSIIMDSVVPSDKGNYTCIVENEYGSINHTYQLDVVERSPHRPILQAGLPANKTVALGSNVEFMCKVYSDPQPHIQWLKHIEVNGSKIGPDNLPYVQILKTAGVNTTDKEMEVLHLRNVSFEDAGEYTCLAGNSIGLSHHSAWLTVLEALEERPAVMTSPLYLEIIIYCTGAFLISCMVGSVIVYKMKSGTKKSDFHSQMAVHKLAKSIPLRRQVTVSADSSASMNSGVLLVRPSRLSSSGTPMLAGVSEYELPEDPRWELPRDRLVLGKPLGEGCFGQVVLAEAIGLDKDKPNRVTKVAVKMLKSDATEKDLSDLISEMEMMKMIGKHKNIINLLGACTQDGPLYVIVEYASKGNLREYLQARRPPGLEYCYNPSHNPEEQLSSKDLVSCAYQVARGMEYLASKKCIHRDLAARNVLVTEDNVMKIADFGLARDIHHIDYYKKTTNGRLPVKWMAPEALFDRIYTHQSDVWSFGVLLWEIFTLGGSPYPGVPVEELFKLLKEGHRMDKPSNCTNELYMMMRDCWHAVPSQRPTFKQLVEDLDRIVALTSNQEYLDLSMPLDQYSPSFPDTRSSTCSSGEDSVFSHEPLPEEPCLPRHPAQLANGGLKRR

SMILES | IC50 (FGFR1) | TGI % (last administration) ([1]; 15 mg/kg) | further results
CC(Oc1ccc2[nH]nc(/C=C/c3ccc(CN4CCOCC4)cc3)c2c1)c1c(Cl)cncc1Cl (stereo not drawn) [Example 63] | 0.01 to 0.05 µM | 86% | 
CC(Oc1ccc2[nH]nc(/C=C/c3ccc(CN4CCOCC4)cc3)c2c1)c1c(Cl)cncc1Cl (stereo not drawn) [WX_063] |  |  | peak time [2]: 0.25 h; AUC(0-t) (in vivo): 221 ± 71.3 nM·h; Cmax (in vivo): 0.214 ± 0.0397 µM

Second part, led by results:

IC50 (FGFR1) | SMILES | TGI % (last administration) ([1]; 15 mg/kg) | further results
0.01 to 0.05 µM | CC(Oc1ccc2[nH]nc(/C=C(\F)c3ccc(CN4CCOCC4)nc3)c2c1)c1c(Cl)cncc1Cl (stereo not drawn) [Example 16] | 84.5% | IC50 (SNU-16 cell): ≤ 0.01 µM
≤ 0.01 µM | C[C@@H](Oc1ccc2[nH]nc(/C=C(\F)c3ccc(CNC4CCOCC4)nc3)c2c1)c1c(Cl)cncc1Cl [Example 18] |  | TGI % (last administration) ([1]; 5 mg/kg): 85%
≤ 0.01 µM | CC(Oc1ccc2[nH]nc(/C=C/c3ccc(CN4CCOCC4)nn3)c2c1)c1c(Cl)cncc1Cl (stereo not drawn) [Example 54] |  | TGI % (last administration) ([1]; 10 mg/kg): 85.4%

From patent US10519133B2, “Vinyl compounds as FGFR and VEGFR inhibitors” (MEDSHINE DISCOVERY INC., priority 2015, dated 2019)
